# Data reported in publication PMC6851892 (Clinical Pharmacology in Drug Development, 2019).
# Key:
# [1] = cited from earlier work
# [2] = tested on: CYP enzymes or transporters; conditions: in vitro; cited from earlier work
# [3] = type: in vivo, human (healthy subjects); conditions: human, plasma, oral
# [4] = cited from earlier work; remark: listed apart in the source
# [5] = primary circulating metabolites of ertugliflozin; cited from earlier work
# [6] = cited from earlier work; remark: listed apart in the source
# [7] = oral radioactive ertugliflozin dose
Compound,"Unmetabolized drug recovered in urine, % of the administered dose [1] [%]",AUC dose proportionality ([1]; dose range of 0.5 to 300 mg),"Median time to maximum plasma concentration (Tmax) ([1]; fed state, oral) [h]","Excretion of radioactivity in feces, % of the dose [1, 7] [%]","Excretion of radioactivity in urine, % of the dose [1, 7] [%]",Inhibition or induction of CYP enzymes or transporters [2],Tmax [3] [h],half-life [3] [min],Biopharmaceutical Classification System class [4],Pharmacological activity [5],Excreted in feces [6] [%],Excreted mostly unmetabolized in urine [6] [%],Renal clearance [6],AUC dose dependence ([6]; healthy subjects)
CCOc1ccc(Cc2cc([C@]34OC[C@](CO)(O3)[C@@H](O)[C@H](O)[C@H]4O)ccc2Cl)cc1 [Ertugliflozin],1.5,increases in a dose‐proportional manner,~2,40.9,50.2,do not inhibit or induce CYP enzymes or transporters,~1,672 to 828,class 1,–,–,–,–,–
"CCOc1ccc(Cc2cc([C@]34OC[C@](CO)(O3)[C@@H](O)[C@H](O[C@@H]3O[C@H](C(=O)O)[C@@H](O)[C@H](O)[C@H]3O)[C@H]4O)ccc2Cl)cc1 [M5c, 3‐O‐β glucuronide]",–,–,–,–,–,–,–,–,–,pharmacologically inactive,–,–,–,–
N[C@@H](CC(=O)N1CCn2c(nnc2C(F)(F)F)C1)Cc1cc(F)c(F)cc1F [Sitagliptin],–,–,–,–,–,–,2.2 to 4,672 to 750,class 1,–,13,87,approximately 388 mL/min,increases in an approximately dose‐dependent manner
